Assay results published in ChEMBL document CHEMBL1201862, “PubChem BioAssay data set” (2004).
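Dose response: 5 concentrations. Exposure: 48 h. Format: 96-well plates. Endpoint: linear interpolation; highest concentration if not reached. Here, GI50 denotes the concentration required for 50% inhibition of growth.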 Active and inactive are the calls of the source. Rule as the data show it: active = GI50 up to about 1.1 µM and inactive = higher.

What was measured:
Experiment in all cases: DTP human tumour cell line panel, 48 h
OVCAR-3 = system: OVCAR-3
NCI-H460 = system: NCI-H460
RXF 393 = system: RXF 393
HL-60 = system: HL-60
MDA-N = system: MDA-N
MCF7 = system: MCF7
NCI-H23 = system: NCI-H23
SF-539 = system: SF-539
KM12 = system: KM12
K562 = system: K562
SF-268 = system: SF-268
RPMI-8226 = system: RPMI-8226
COLO 205 = system: COLO 205
HT-29 = system: HT-29
SN12C = system: SN12C
U-251 = system: U-251
DU-145 = system: DU-145
SK-MEL-5 = system: SK-MEL-5
SNB-19 = system: SNB-19
NCI-H522 = system: NCI-H522

| Structure (SMILES) | GI50 (OVCAR-3) | GI50 (NCI-H460) | GI50 (RXF 393) | GI50 (HL-60) | GI50 (MDA-N) | GI50 (MCF7) | GI50 (NCI-H23) | GI50 (SF-539) | GI50 (KM12) | GI50 (K562) | GI50 (SF-268) | GI50 (RPMI-8226) | GI50 (COLO 205) | GI50 (HT-29) | GI50 (SN12C) | GI50 (U-251) | GI50 (DU-145) | GI50 (SK-MEL-5) | GI50 (SNB-19) | GI50 (NCI-H522) |
| --- | --- | --- | --- | --- | --- | --- | --- | --- | --- | --- | --- | --- | --- | --- | --- | --- | --- | --- | --- | --- |
| Cc1cccc2c1CC(Cc1ccccc1C(=O)O)C2=O (stereo not given) | > 100 µM (inactive) | > 100 µM (inactive) | > 100 µM (inactive) | > 100 µM (inactive) | > 100 µM (inactive) | > 100 µM (inactive) | > 100 µM (inactive) | > 100 µM (inactive) | > 100 µM (inactive) | > 100 µM (inactive) | > 100 µM (inactive) | > 100 µM (inactive) | > 100 µM (inactive) | > 100 µM (inactive) | > 100 µM (inactive) | > 100 µM (inactive) | > 100 µM (inactive) | > 100 µM (inactive) | > 100 µM (inactive) | > 100 µM (inactive) |
| CCOC(=O)c1sc2c(c1OC(=O)c1ccc(Cl)cc1Cl)c(=O)n(-c1ccccc1)c(=S)n2-c1ccccc1 | 21 µM (inactive) | 5.24 µM (inactive) | > 100 µM (inactive) | 4.29 µM (inactive) | 22 µM (inactive) | 24.5 µM (inactive) | 4.91 µM (inactive) | 25.9 µM (inactive) | 5.73 µM (inactive) | 3.75 µM (inactive) | 8.02 µM (inactive) | 4.58 µM (inactive) | 3.94 µM (inactive) | 8.89 µM (inactive) | 4.22 µM (inactive) | 5.21 µM (inactive) | 31.1 µM (inactive) | 11.7 µM (inactive) | > 24 µM (inactive) | 4.74 µM (inactive) |
| CC[C@@]1(O)C(=O)OCc2c1cc1n(c2=O)Cc2c-1nc1ccccc1c2/C=N\NC(=O)CN | 6.9 µM (inactive) | 0.042 µM (active) | 0.873 µM (active) | 0.145 µM (active) | 1.57 µM (inactive) | 0.0495 µM (active) | 0.0676 µM (active) | 0.0258 µM (active) | 6.14 µM (inactive) | 0.586 µM (active) | 0.0387 µM (active) | 0.147 µM (active) | 15.6 µM (inactive) | 1.68 µM (inactive) | 0.0458 µM (active) | 0.135 µM (active) | 0.0989 µM (active) | 0.252 µM (active) | < 0.0397 µM (active) | 1.02 µM (active) |
| CCOC(=O)Cn1nc2ccc(Nc3nc4ccccc4nc3C(=O)OCC)cc2n1 | 63.4 µM (inactive) | > 100 µM (inactive) | 23.6 µM (inactive) | > 100 µM (inactive) | > 100 µM (inactive) | 76.4 µM (inactive) | 76.6 µM (inactive) | 23.5 µM (inactive) | > 100 µM (inactive) | > 100 µM (inactive) | 47.4 µM (inactive) | > 100 µM (inactive) | > 100 µM (inactive) | 42 µM (inactive) | > 100 µM (inactive) | 44.4 µM (inactive) | > 100 µM (inactive) | > 100 µM (inactive) | 34 µM (inactive) | 57 µM (inactive) |
| C=CCN(c1cc(OC)c2[nH]c(C(=O)OCC)c(C)c2c1[N+](=O)[O-])S(C)(=O)=O | 23.8 µM (inactive) | 30.3 µM (inactive) | 7.23 µM (inactive) | 15.8 µM (inactive) | 18.1 µM (inactive) | 22.4 µM (inactive) | 28.4 µM (inactive) | 33.6 µM (inactive) | 23.5 µM (inactive) | 15.1 µM (inactive) | 26.4 µM (inactive) | 14.6 µM (inactive) | 15.5 µM (inactive) | 18.2 µM (inactive) | 19.6 µM (inactive) | 16.1 µM (inactive) | 24.7 µM (inactive) | 16.1 µM (inactive) | 28.4 µM (inactive) | 17.7 µM (inactive) |
| O=C1C2C(c3ccccc3)NC(c3ccccc3)C1C(c1ccccc1)NC2c1ccccc1 (stereo not given) | > 100 µM (inactive) | > 100 µM (inactive) | > 100 µM (inactive) | > 100 µM (inactive) | > 100 µM (inactive) | > 100 µM (inactive) | > 100 µM (inactive) | > 100 µM (inactive) | > 100 µM (inactive) | > 100 µM (inactive) | > 100 µM (inactive) | > 100 µM (inactive) | > 100 µM (inactive) | > 100 µM (inactive) | > 100 µM (inactive) | > 100 µM (inactive) | > 100 µM (inactive) | > 100 µM (inactive) | > 100 µM (inactive) | > 100 µM (inactive) |
| O=c1cc(-c2ccccc2)[nH]c2ccc(N3CCCC3)cc12 | 0.0272 µM (active) | 0.0275 µM (active) | 0.0196 µM (active) | < 0.01 µM (active) | < 0.01 µM (active) | 4.58 µM (inactive) | 0.299 µM (active) | 0.0123 µM (active) | 0.039 µM (active) | < 0.01 µM (active) | 0.173 µM (active) | 0.0366 µM (active) | 0.0196 µM (active) | 0.0146 µM (active) | 0.0451 µM (active) | 0.0102 µM (active) | 0.0459 µM (active) | 0.0366 µM (active) | 0.0217 µM (active) | < 0.01 µM (active) |
| Cc1nn(-c2ccccn2)c2c1C(SC#N)=C(C=O)CC2 | 12.3 µM (inactive) | 15.9 µM (inactive) | 5.16 µM (inactive) | 3.55 µM (inactive) | 17.7 µM (inactive) | 10.5 µM (inactive) | 16.4 µM (inactive) | 19.1 µM (inactive) | 16.7 µM (inactive) | 8.07 µM (inactive) | 16.5 µM (inactive) | 13.3 µM (inactive) | 10.5 µM (inactive) | 16.1 µM (inactive) | 18.5 µM (inactive) | 15.5 µM (inactive) | 14.9 µM (inactive) | 15 µM (inactive) | 19.6 µM (inactive) | 19.5 µM (inactive) |
| C/C(=N\NC(=S)N1CCCCCC1)c1ccccn1 | < 0.001 µM (active) | 0.0164 µM (active) | 0.553 µM (active) | 0.0021 µM (active) | 0.42 µM (active) | 0.0022 µM (active) | 0.00897 µM (active) | 0.0506 µM (active) | 0.0258 µM (active) | 0.00288 µM (active) | 0.405 µM (active) | 0.00405 µM (active) | 0.00244 µM (active) | < 0.001 µM (active) | 0.548 µM (active) | 0.00522 µM (active) | 0.986 µM (active) | 0.00805 µM (active) | 0.0521 µM (active) | 0.0624 µM (active) |
| C=C1C(=O)O[C@H]2[C@H]1[C@H](OC(=O)/C(C)=C\C)C[C@]1(CO1)[C@@H]1[C@H](OC(C)=O)C=C(C)[C@]21O [EUPAROTIN ACETATE] | 14.7 µM (inactive) | 28 µM (inactive) | 10.8 µM (inactive) | 2.66 µM (inactive) | 13.2 µM (inactive) | 6.79 µM (inactive) | 23.2 µM (inactive) | 30.3 µM (inactive) | 19 µM (inactive) | 0.383 µM (active) | 19.2 µM (inactive) | 4.82 µM (inactive) | 5.24 µM (inactive) | 12.4 µM (inactive) | 14 µM (inactive) | 21.9 µM (inactive) | 15.4 µM (inactive) | 17 µM (inactive) | > 58.5 µM (inactive) | 3.31 µM (inactive) |
